The values below come from US20220347309A1, “PYRROLOBENZODIAZEPINE RESISTANCE” (ADC THERAPEUTICS SA, priority 2018, published 2022).

Common to all, as to format: cell-based, human
The subject of test [1] is Karpas-299 wt cells. Briefly: Single dose 2-hour exposure cytotoxicity (MTS). The settings on record: 130 pM ADCT-301 or 280 pM SG3199 for 2 hours, then 96 hours, vs untreated control.
Test [2] has as its system Karpas PBDr cells. The test is described as follows: Single dose 2-hour exposure cytotoxicity (MTS). The settings on record: 130 μM ADCT-301 (legend: pM) or 280 pM SG3199 for 2 hours, then 96 hours. The protocol: (§1) To investigate growth inhibition under the same conditions under which DNA ICL formation was measured, Karpas-ADCR cells were treated with 130 pM ADCT-301, and Karpas-PBDR cells treated with 280 pM SG3199 for 2 hours, then washed and incubated for 96 hours under normal cell culture conditions. The MTS assay and calculation of % growth compared to the untreated control was carried out as previously described.
(§2) To investigate whether the cross-resistance in ICL formation observed in the Karpas resistant cell lines also correlates with growth inhibition at this dose, ADCR cells were treated with […] SG3199, and PBDR cells treated with […] ADCT-301 for 2 hours, then washed and incubated for 96 hours under normal cell culture conditions. The MTS assay and calculation of % growth compared to the untreated control was carried out as previously described. The results are shown in FIG. 22 for the ADCR line and FIG. 23 for the PBDR line.

Test [3] concerns Karpas ADCr cells. Briefly: Single dose 2-hour exposure cytotoxicity (MTS). The settings on record: 130 pM ADCT-301 or 280 μM SG3199 (legend: pM) for 2 hours, then 96 hours. As for the experimental part: as §1, §2
Test [4] concerns Karpas-299 wt cells. Briefly: DNA interstrand cross-linking, single cell gel electrophoresis (comet) assay. The settings on record: 130 μM ADCT-301 or 280 μM SG3199 (figure legends: pM) for 2 hours, then 24 hours. The protocol: The formation of inter-strand cross-links (ICLs) by either ADCT-301 or SG3199 was measured using a modification of the single cell gel electrophoresis (comet) assay (Spanswick V J, Hartley J M, Hartley J A. Measurement of DNA interstrand crosslinking in individual cells using the Single Cell Gel Electrophoresis (Comet) assay. Methods Mol Biol. 613, 267-82 (2010)). Cells were treated with […] ADCT-301 or […] SG3199 for 2 hours, then washed and incubated for 24 hours under normal cell culture conditions. All cells were irradiated with 18 Gy (5 Gy/min for 3.6 min). Comet slides were reviewed under a 20× objective on an epifluorescence microscope equipped with: Hg arc lamp; 580 nm dichroic mirror; and 535 nm excitation and 645 nm emission filters suitable for visualising of propidium iodide staining with a minimum of 50 Comet images acquired per treatment condition. The Olive Tail Moment (OTM) was determined as the product of the tail length and the fraction of total DNA in the tail as recorded by Komet 6 software (Andor Technology, Belfast, UK) and the percentage reduction in OTM calculated according to the formula:
% decrease in tail moment=[1−(TMdi−TMcu)/(TMci−TMcu)]*100 • [TMdi=Tail Moment drug irradiated; TMcu=TM control un-irradiated; TMci=TM control irradiated]
The results are shown in FIG. 18 for the ADCR line and FIG. 19 for the PBDR line.

Test [5] has as its system NCI-N87 wt cells. Briefly: Single dose 2-hour exposure cytotoxicity (MTS). The settings on record: single dose for 2 hours, then 144 hours, vs untreated control.

Take `COc1cc2c(cc1OCCCCCOc1cc3c(cc1OC)C(=O)N1C=C(C)C[C@H]1C=N3)N=C[C@@H]1CC(C)=CN1C2=O` [SG3199]: the “2 hr mean % growth” value in test [1] is on record as 33.8%; in test [2], 78.5%; in test [3] it was 86.3%; in test [5] it was 29.0%. Also, the “% red. OTM (mean % reduction in Olive Tail Moment)” value in test [4] amounted to 55.5%.
